Laboratory results as given in US20230081426A1, “COMPOUNDS AND METHODS FOR KRAS MODULATION AND INDICATIONS THEREFOR” (Plexxikon Inc., priority 2020, published 2023).

Assays:
[1] = biological target: T1, G12D-mutant human KRAS (amino acid residues 1-188) (Homo sapiens, UniProt P01116, G12D); assay: KRAS Binding Disruption Assay (AlphaScreen; biotinylated KRpep-2d analogue or RAF1-RBD), G12D; conditions: KRAS G12D; geometric mean; read-out: KRAS GMean IC50 (uM) MUTATION: G12D
T1 construct: G12D or G12C-mutant human KRAS (amino acid residues 1-188) with FLAG tag; made in house; host or cells: E. coli
How it was run: (§1)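 Mutant KRAS (5-20 nM) incubated 1 h at 25° C with test compound and 5-20 nM biotinylated KRpep-2d analogue or RAF1-RBD in 20 mM HEPES pH 7.5, 100 mM NaCl, 5 mM MgCl2, 0.01% Tween-20, 0.01% BSA.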

[2] = biological target: T2, G12C-mutant human KRAS (amino acid residues 1-188) (Homo sapiens, UniProt P01116, G12C); assay: KRAS Binding Disruption Assay (AlphaScreen; biotinylated KRpep-2d analogue or RAF1-RBD), G12C; conditions: geometric mean, read-out: KRAS GMean IC50 (uM) MUTATION: G12C
T2 construct: G12D or G12C-mutant human KRAS (amino acid residues 1-188) with FLAG tag; made in house; host or cells: E. coli
How it was run: as §1

[3] = biological target: T3, G12V-mutant human KRAS (amino acid residues 1-188) (Homo sapiens, UniProt P01116, G12V); assay: KRAS Binding Competition Assay (AlphaScreen; biotinylated KRpep-2d analogue), G12V; conditions: geometric mean, read-out: KRAS GMean IC50 (uM) MUTATION: G12V
T3 construct: G12V-mutant human KRAS (amino acid residues 1-188) with FLAG tag was purified from E. coli; made in house; host or cells: E. coli

## NCC(=O)N1[C@@H]2CC[C@H]1CN(c1nc(OCC34CCCN3CCC4)nc3cc(-c4cc(O)cc5ccccc45)ccc13)C2 [P-0007, 2-amino-1-((1R,5S)-3-(7-(3-hydroxynaphthalen-1-yl)-2-((tetrahydro-1H-pyrrolizin-7a(5H)-yl)methoxy)quinazolin-4-yl)-3,8-diazabicyclo[3.2.1]octan-8-yl)ethan-1-one]
[1]
  IC50: 0.0001 to 10 µM
[2]
  IC50: 0.0001 to 10 µM
[3]
  IC50: 0.0001 to 10 µM

## Oc1cc(-c2ccc3c(N4C[C@H]5CC[C@@H](C4)N5)nc(OCC45CCCN4CCC5)nc3c2)c2ccccc2c1 [P-0002, 4-(4-((1R,5S)-3,8-diazabicyclo[3.2.1]octan-3-yl)-2-((tetrahydro-1H-pyrrolizin-7a(5H)-yl)methoxy)quinazolin-7-yl)naphthalen-2-ol]
[1]
  IC50: 0.0001 to 10 µM
[2]
  IC50: 0.0001 to 10 µM
[3]
  IC50: 0.0001 to 10 µM

## CN1CC[C@@H](NC(=O)N2[C@@H]3CC[C@H]2CN(c2nc(OCC45CCCN4CCC5)nc4cc(-c5cc(O)cc6ccccc56)ccc24)C3)C1 [P-0133, (1R,5S)-3-(7-(3-hydroxynaphthalen-1-yl)-2-((tetrahydro-1H-pyrrolizin-7a(5H)-yl)methoxy)quinazolin-4-yl)-N-((R)-1-methylpyrrolidin-3-yl)-3,8-diazabicyclo[3.2.1]octane-8-carboxamide]
[1]
  IC50: 0.0001 to 10 µM
[2]
  IC50: 0.0001 to 10 µM
[3]
  IC50: 0.0001 to 10 µM

## CN1CCC(Oc2nc(N3C[C@H]4CC[C@@H](C3)N4)c3cc(Cl)c(-c4cc(O)cc5ccccc45)c(F)c3n2)CC1 [P-0032, 4-(4-((1R,5S)-3,8-diazabicyclo[3.2.1]octan-3-yl)-6-chloro-8-fluoro-2-((1-methylpiperidin-4-yl)oxy)quinazolin-7-yl)naphthalen-2-ol]
[1]
  IC50: 0.0001 to 10 µM
[2]
  IC50: 10 to 100 µM
[3]
  IC50: 10 to 100 µM

## O=C1N=C(S)SC1CC(=O)N1[C@@H]2CC[C@H]1CN(c1nc(OCC34CCCN3CCC4)nc3c(F)c(-c4cc(O)cc5ccccc45)ccc13)C2 (stereo partly drawn) [P-0411, 5-(2-((1R,5S)-3-(8-fluoro-7-(3-hydroxynaphthalen-1-yl)-2-((tetrahydro-1H-pyrrolizin-7a(5H)-yl)methoxy)quinazolin-4-yl)-3,8-diazabicyclo[3.2.1]octan-8-yl)-2-oxoethyl)-2-mercaptothiazol-4(5H)-one]
[1]
  IC50: 0.0001 to 10 µM
[2]
  IC50: 0.0001 to 10 µM
[3]
  IC50: 0.0001 to 10 µM

## N#CC1(CC(=O)N2[C@@H]3CC[C@H]2CN(c2nc(OCC45CCCN4CCC5)nc4c(F)c(-c5cc(O)cc6ccccc56)ccc24)C3)CC1 [P-0409, 1-(2-((1R,5S)-3-(8-fluoro-7-(3-hydroxynaphthalen-1-yl)-2-((tetrahydro-1H-pyrrolizin-7a(5H)-yl)methoxy)quinazolin-4-yl)-3,8-diazabicyclo[3.2.1]octan-8-yl)-2-oxoethyl)cyclopropane-1-carbonitrile]
[1]
  IC50: 0.0001 to 10 µM
[2]
  IC50: 0.0001 to 10 µM
[3]
  IC50: 0.0001 to 10 µM

## CCCNS(=O)(=O)N1[C@@H]2CC[C@H]1CN(c1nc(OCC34CCCN3CCC4)nc3cc(-c4cc(O)cc5ccccc45)ccc13)C2 [P-0096, (1R,5S)-3-(7-(3-hydroxynaphthalen-1-yl)-2-((tetrahydro-1H-pyrrolizin-7a(5H)-yl)methoxy)quinazolin-4-yl)-N-propyl-3,8-diazabicyclo[3.2.1]octane-8-sulfonamide]
[1]
  IC50: 0.0001 to 10 µM
[2]
  IC50: 0.0001 to 10 µM
[3]
  IC50: 10 to 100 µM

## O=C1NC(=O)[C@H](CC(=O)N2[C@@H]3CC[C@H]2CN(c2nc(OCC45CCCN4CCC5)nc4c(F)c(-c5cc(O)cc6ccccc56)ccc24)C3)N1 [P-0415, (S)-5-(2-((1R,5S)-3-(8-fluoro-7-(3-hydroxynaphthalen-1-yl)-2-((tetrahydro-1H-pyrrolizin-7a(5H)-yl)methoxy)quinazolin-4-yl)-3,8-diazabicyclo[3.2.1]octan-8-yl)-2-oxoethyl)imidazolidine-2,4-dione]
[1]
  IC50: 0.0001 to 10 µM
[2]
  IC50: 0.0001 to 10 µM
[3]
  IC50: 0.0001 to 10 µM

## CN1[C@@H]2CC[C@H]1CN(c1nc(OCC34CCCN3CCC4)nc3cc(-c4cc(O)cc5ccccc45)ccc13)C2 [P-0017, 4-(4-((1R,5S)-8-methyl-3,8-diazabicyclo[3.2.1]octan-3-yl)-2-((tetrahydro-1H-pyrrolizin-7a(5H)-yl)methoxy)quinazolin-7-yl)naphthalen-2-ol]
[1]
  IC50: 0.0001 to 10 µM
[2]
  IC50: 10 to 100 µM
[3]
  IC50: 10 to 100 µM

## O=C(NC1CCOC1)N1[C@@H]2CC[C@H]1CN(c1nc(OCC34CCCN3CCC4)nc3cc(-c4cc(O)cc5ccccc45)ccc13)C2 (stereo partly drawn) [P-0129, (1R,5S)-3-(7-(3-hydroxynaphthalen-1-yl)-2-((tetrahydro-1H-pyrrolizin-7a(5H)-yl)methoxy)quinazolin-4-yl)-N-(tetrahydrofuran-3-yl)-3,8-diazabicyclo[3.2.1]octane-8-carboxamide]
[1]
  IC50: 0.0001 to 10 µM
[2]
  IC50: 0.0001 to 10 µM
[3]
  IC50: 0.0001 to 10 µM
